What was measured:
Experiment in all cases: relative viability (nuclei count vs DMSO), 5 days (fraction); higher = more cells survive
[1] = compound: COc1cc2ncn(-c3cc(OCc4ccccc4C(F)(F)F)c(C(N)=O)s3)c2cc1OC + CC(C)C[C@H](NC(=O)[C@H](Cc1ccccc1)NC(=O)c1cnccn1)B(O)O [Bortezomib] (partner 0.002 µM)
In short: (§1)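 Each reported value is a median over duplicate plates. It expresses relative viability: treated-well nuclei count divided by vehicle-well nuclei count. Lung cancer cell lines in 1536-well plates were dosed by pin tool a day after seeding, alone with one drug or with a fixed anchor-drug dose plus five library-drug doses (not always all listed) in √10 steps, and nuclei were counted after 5 days.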

[2] = compound: COc1cc2ncn(-c3cc(OCc4ccccc4C(F)(F)F)c(C(N)=O)s3)c2cc1OC + NC(=O)Nc1cc(-c2cccc(F)c2)sc1C(=O)N[C@H]1CCCNC1 [AZD7762] (partner 0.2 µM)
In short: as §1

[3] = compound: COc1cc2ncn(-c3cc(OCc4ccccc4C(F)(F)F)c(C(N)=O)s3)c2cc1OC + Cc1cc(Nc2cc(N3CCN(C)CC3)nc(Sc3ccc(NC(=O)C4CC4)cc3)n2)n[nH]1 [Tozasertib] (partner 0.1 µM)
In short: as §1

[4] = compound: COc1cc2ncn(-c3cc(OCc4ccccc4C(F)(F)F)c(C(N)=O)s3)c2cc1OC + Nc1ncn([C@H]2C[C@H](O)[C@@H](CO)O2)c(=O)n1 [Decitabine] (partner 2 µM)
In short: as §1

Cell Line: NCI-H2085
- relative viability ([1]; first compound 0.05 µM): 0.968
- relative viability ([1]; first compound 0.1581 µM): 1.11
- relative viability ([1]; first compound 0.5 µM): 0.796
- relative viability ([1]; first compound 1.581 µM): 0.529
- relative viability ([1]; first compound 5 µM): 0.362
- relative viability ([2]; first compound 0.05 µM): 0.969
- relative viability ([2]; first compound 0.1581 µM): 0.964
- relative viability ([2]; first compound 0.5 µM): 0.862
- relative viability ([2]; first compound 1.581 µM): 0.39
- relative viability ([2]; first compound 5 µM): 0.248
- relative viability ([3]; first compound 0.05 µM): 0.761
- relative viability ([3]; first compound 0.1581 µM): 0.738
- relative viability ([3]; first compound 0.5 µM): 0.403
- relative viability ([3]; first compound 1.581 µM): 0.407
- relative viability ([3]; first compound 5 µM): 0.454
- relative viability ([4]; first compound 0.05 µM): 0.508
- relative viability ([4]; first compound 0.1581 µM): 0.502
- relative viability ([4]; first compound 0.5 µM): 0.431
- relative viability ([4]; first compound 1.581 µM): 0.36
- relative viability ([4]; first compound 5 µM): 0.363

Cell Line: H3255
- relative viability ([1]; first compound 0.05 µM): 0.793
- relative viability ([1]; first compound 0.1581 µM): 0.746
- relative viability ([1]; first compound 0.5 µM): 0.708
- relative viability ([1]; first compound 1.581 µM): 0.363
- relative viability ([1]; first compound 5 µM): 0.242
- relative viability ([2]; first compound 0.05 µM): 0.946
- relative viability ([2]; first compound 0.1581 µM): 0.922
- relative viability ([2]; first compound 0.5 µM): 0.625
- relative viability ([2]; first compound 1.581 µM): 0.395
- relative viability ([2]; first compound 5 µM): 0.324
- relative viability ([3]; first compound 0.05 µM): 0.563
- relative viability ([3]; first compound 0.1581 µM): 0.722
- relative viability ([3]; first compound 0.5 µM): 0.451
- relative viability ([3]; first compound 5 µM): 0.41
- relative viability ([4]; first compound 0.05 µM): 0.518
- relative viability ([4]; first compound 0.1581 µM): 0.674
- relative viability ([4]; first compound 0.5 µM): 0.625
- relative viability ([4]; first compound 1.581 µM): 0.312
- relative viability ([4]; first compound 5 µM): 0.294

Cell Line: LCLC-103H
- relative viability ([1]; first compound 0.05 µM): 1
- relative viability ([1]; first compound 0.1581 µM): 1.03
- relative viability ([1]; first compound 0.5 µM): 0.744
- relative viability ([1]; first compound 1.581 µM): 0.522
- relative viability ([1]; first compound 5 µM): 0.208
- relative viability ([2]; first compound 0.05 µM): 0.75
- relative viability ([2]; first compound 0.1581 µM): 0.876
- relative viability ([2]; first compound 0.5 µM): 0.707
- relative viability ([2]; first compound 1.581 µM): 0.375
- relative viability ([2]; first compound 5 µM): 0.242
- relative viability ([3]; first compound 0.05 µM): 0.395
- relative viability ([3]; first compound 0.1581 µM): 0.457
- relative viability ([3]; first compound 0.5 µM): 0.33
- relative viability ([3]; first compound 1.581 µM): 0.252
- relative viability ([3]; first compound 5 µM): 0.217
- relative viability ([4]; first compound 0.05 µM): 0.729
- relative viability ([4]; first compound 0.1581 µM): 0.785
- relative viability ([4]; first compound 0.5 µM): 0.657
- relative viability ([4]; first compound 1.581 µM): 0.355
- relative viability ([4]; first compound 5 µM): 0.257

Cell Line: LOU-NH91
- relative viability ([1]; first compound 0.05 µM): 0.434
- relative viability ([1]; first compound 0.1581 µM): 0.368
- relative viability ([1]; first compound 0.5 µM): 0.405
- relative viability ([1]; first compound 1.581 µM): 0.348
- relative viability ([1]; first compound 5 µM): 0.346
- relative viability ([2]; first compound 0.05 µM): 0.774
- relative viability ([2]; first compound 0.1581 µM): 0.818
- relative viability ([2]; first compound 0.5 µM): 0.638
- relative viability ([2]; first compound 1.581 µM): 0.41
- relative viability ([2]; first compound 5 µM): 0.277
- relative viability ([3]; first compound 0.05 µM): 0.653
- relative viability ([3]; first compound 0.1581 µM): 0.641
- relative viability ([3]; first compound 0.5 µM): 0.399
- relative viability ([3]; first compound 1.581 µM): 0.29
- relative viability ([3]; first compound 5 µM): 0.31
- relative viability ([4]; first compound 0.05 µM): 0.841
- relative viability ([4]; first compound 0.1581 µM): 0.84
- relative viability ([4]; first compound 0.5 µM): 0.761
- relative viability ([4]; first compound 1.581 µM): 0.513
- relative viability ([4]; first compound 5 µM): 0.344

Cell Line: NCI-H3122
- relative viability ([1]; first compound 0.05 µM): 1.05
- relative viability ([1]; first compound 0.1581 µM): 0.951
- relative viability ([1]; first compound 0.5 µM): 0.709
- relative viability ([1]; first compound 1.581 µM): 0.183
- relative viability ([1]; first compound 5 µM): 0.227
- relative viability ([2]; first compound 0.05 µM): 1.07
- relative viability ([2]; first compound 0.1581 µM): 0.81
- relative viability ([2]; first compound 0.5 µM): 0.359
- relative viability ([2]; first compound 1.581 µM): 0.133
- relative viability ([2]; first compound 5 µM): 0.144
- relative viability ([3]; first compound 0.05 µM): 0.359
- relative viability ([3]; first compound 0.1581 µM): 0.392
- relative viability ([3]; first compound 0.5 µM): 0.211
- relative viability ([3]; first compound 1.581 µM): 0.286
- relative viability ([3]; first compound 5 µM): 0.284
- relative viability ([4]; first compound 0.05 µM): 0.373
- relative viability ([4]; first compound 0.1581 µM): 0.426
- relative viability ([4]; first compound 0.5 µM): 0.193
- relative viability ([4]; first compound 1.581 µM): 0.14
- relative viability ([4]; first compound 5 µM): 0.103

Cell Line: RERF-LC-KJ
- relative viability ([1]; first compound 0.05 µM): 1.14
- relative viability ([1]; first compound 0.1581 µM): 1.12
- relative viability ([1]; first compound 0.5 µM): 0.67
- relative viability ([1]; first compound 1.581 µM): 0.357
- relative viability ([1]; first compound 5 µM): 0.558
- relative viability ([2]; first compound 0.05 µM): 1.01
- relative viability ([2]; first compound 0.1581 µM): 1.59
- relative viability ([2]; first compound 0.5 µM): 0.849
- relative viability ([2]; first compound 1.581 µM): 0.761
- relative viability ([2]; first compound 5 µM): 0.814
- relative viability ([3]; first compound 0.05 µM): 0.476
- relative viability ([3]; first compound 0.1581 µM): 0.646
- relative viability ([3]; first compound 0.5 µM): 0.247
- relative viability ([3]; first compound 1.581 µM): 0.248
- relative viability ([3]; first compound 5 µM): 0.257
- relative viability ([4]; first compound 0.05 µM): 0.802
- relative viability ([4]; first compound 0.1581 µM): 0.633
- relative viability ([4]; first compound 0.5 µM): 0.27
- relative viability ([4]; first compound 1.581 µM): 0.198
- relative viability ([4]; first compound 5 µM): 0.25

Cell Line: NCI-H1651
- relative viability ([1]; first compound 0.05 µM): 1.05
- relative viability ([1]; first compound 0.1581 µM): 0.9
- relative viability ([1]; first compound 0.5 µM): 0.994
- relative viability ([1]; first compound 1.581 µM): 0.708
- relative viability ([1]; first compound 5 µM): 0.256
- relative viability ([2]; first compound 0.05 µM): 0.415
- relative viability ([2]; first compound 0.1581 µM): 0.518
- relative viability ([2]; first compound 0.5 µM): 0.32
- relative viability ([2]; first compound 1.581 µM): 0.37
- relative viability ([2]; first compound 5 µM): 0.303
- relative viability ([3]; first compound 0.05 µM): 0.89
- relative viability ([3]; first compound 0.1581 µM): 0.706
- relative viability ([3]; first compound 0.5 µM): 0.314
- relative viability ([3]; first compound 1.581 µM): 0.182
- relative viability ([3]; first compound 5 µM): 0.155
- relative viability ([4]; first compound 0.05 µM): 0.619
- relative viability ([4]; first compound 0.1581 µM): 0.64
- relative viability ([4]; first compound 0.5 µM): 0.463
- relative viability ([4]; first compound 1.581 µM): 0.192
- relative viability ([4]; first compound 5 µM): 0.263

Cell Line: NCI-H2087
- relative viability ([1]; first compound 0.05 µM): 0.768
- relative viability ([1]; first compound 0.1581 µM): 0.782
- relative viability ([1]; first compound 0.5 µM): 0.484
- relative viability ([1]; first compound 1.581 µM): 0.167
- relative viability ([1]; first compound 5 µM): 0.131
- relative viability ([2]; first compound 0.05 µM): 1.37
- relative viability ([2]; first compound 0.1581 µM): 1.22
- relative viability ([2]; first compound 0.5 µM): 0.575
- relative viability ([2]; first compound 1.581 µM): 0.12
- relative viability ([2]; first compound 5 µM): 0.109
- relative viability ([3]; first compound 0.05 µM): 0.255
- relative viability ([3]; first compound 0.1581 µM): 0.253
- relative viability ([3]; first compound 0.5 µM): 0.144
- relative viability ([3]; first compound 1.581 µM): 0.126
- relative viability ([3]; first compound 5 µM): 0.114
- relative viability ([4]; first compound 0.05 µM): 0.317
- relative viability ([4]; first compound 0.1581 µM): 0.227
- relative viability ([4]; first compound 0.5 µM): 0.152
- relative viability ([4]; first compound 1.581 µM): 0.0875
- relative viability ([4]; first compound 5 µM): 0.106

From the supplement of paper PMC10307832
